Measurements taken from patent US20080132562A1, “TETRONIC AND TETRAMIC ACIDS” (priority 2003, published 2008).

Target: T1, purified BACE protein (β-secretase) (Homo sapiens, UniProt P56817)
T1 construct: made in house
Assay: Competitive Radioligand Binding Assay (RLBA)
Details: β-secretase inhibition; displacement of tritiated Compound A tracer from plate-coated BACE, binding buffer pH 4.1; read-out: IC50 in vitro
Description: Competitive Radioligand Binding Assay (RLBA)
96 well microplates (Optiplate Packard) are coated with purified BACE protein (see e.g. GB 2,385,124: Examples 1 and 2) using a concentration of 1 μg/ml in 30 mM sodium citrate buffer adjusted to pH 5.5. The coating is achieved by incubation of 100 μl/well for 1-3 days at 4° C. The plate is then washed with 2×300 μl/well of 10 mM citrate pH 4.1. To each well 100 μl binding buffer (30 mM citrate, 100 mM NaCl, 0.1% BSA, pH 4.1) is dispensed. The test compound is added in 5 μl from a DMSO stock solution or appropriate dilutions. To this the tracer (tritiated Compound A, see e.g. GB 2,385,124: Example 4) is added in 10 μl/well from a 10 μCi/ml stock solution in binding buffer. After incubation for 1.5-2 hours in a humid chamber at ambient temperature the plate is washed with 2×300 μl/well water and flipped on a dry towel. Following the addition of 50 μl/well MicroScint20 (Packard) the plate is sealed and vibrated for 5 seconds. The bound radioactivity is counted on a Topcount (Packard). Total binding is typically between 2000 and 10000 cpm/well depending mainly on the purity and concentration of the BACE protein. Non-specific binding as assessed by competition with >1 μM peptidic inhibitor (Bachem #H-4848) is typically between 30 and 300 cpm/well. The IC-50 values are calculated by Microsoft Excel FIT.

T1 sequence (P56817 46-501): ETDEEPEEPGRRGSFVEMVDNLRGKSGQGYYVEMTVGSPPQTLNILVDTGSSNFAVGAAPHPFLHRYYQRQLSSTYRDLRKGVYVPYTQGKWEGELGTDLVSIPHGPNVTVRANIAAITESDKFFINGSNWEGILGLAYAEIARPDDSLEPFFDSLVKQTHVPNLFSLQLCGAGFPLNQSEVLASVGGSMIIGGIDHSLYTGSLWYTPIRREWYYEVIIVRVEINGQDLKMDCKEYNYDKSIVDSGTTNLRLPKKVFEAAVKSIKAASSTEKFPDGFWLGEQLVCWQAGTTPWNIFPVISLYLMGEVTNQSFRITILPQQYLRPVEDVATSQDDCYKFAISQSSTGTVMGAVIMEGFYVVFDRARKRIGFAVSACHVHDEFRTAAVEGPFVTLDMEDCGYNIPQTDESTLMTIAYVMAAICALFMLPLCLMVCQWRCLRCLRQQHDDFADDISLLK

| Compound | IC50 |
| --- | --- |
| O=C(Cn1c2ccccc2c2ccccc21)C1=C(O)C(CCc2ccccc2)NC1=O (stereo not drawn) [Example K46, 3-(Carbazol-9-yl-acetyl)-4-hydroxy-5-phenethyl-1,5-dihydro-pyrrol-2-one] | 36 µM |
| COc1ccc(Cl)cc1C(=O)NCCc1ccc(CC(C)C(=O)C2=C(O)C(CC3CCCCC3)OC2=O)cc1 (stereo not drawn) [Example C12, 5-Chloro-N-(2-{4-[3-(5-cyclohexylmethyl-4-hydroxy-2-oxo-2,5-dihydro-furan-3-yl)-2-methyl-3-oxo-propyl]-phenyl}-ethyl)-2-methoxy-benzamide] | 12 µM |
| O=C(Cn1c2ccccc2c2ccccc21)C1=C(O)C(CC2CCCCC2)OC1=O (stereo not drawn) [Example C33, 3-(Carbazol-9-yl-acetyl)-5-cyclohexylmethyl-4-hydroxy-5H-furan-2-one] | 11 µM |
| NC(Cc1ccc(OCc2ccccc2)cc1)C(=O)C1=C(O)C(CCc2ccccc2)NC1=O (stereo not drawn) [Example K38, 3-[2-Amino-3-(4-benzyloxy-phenyl)-propionyl]-4-hydroxy-5-phenethyl-1,5-dihydro-pyrrol-2-one; compound with trifluoro-acetic acid] | 16 µM |
| O=C(Cc1c[nH]c2ccccc12)C1=C(O)C(CCCc2ccccc2)OC1=O (stereo not drawn) [Example F5, 4-Hydroxy-3-[(H-indol-3-yl)-acetyl]-5-(3-phenyl-propyl)-5H-furan-2-one] | 14 µM |
| CC1(CCc2ccccc2)OC(=O)C(C(=O)CC2c3ccccc3-c3ccccc32)=C1O (stereo not drawn) [Example I7, 3-[(9H-Fluoren-9-yl)-acetyl]-4-hydroxy-5-methyl-5-phenethyl-5H-furan-2-one] | 31 µM |
| CC(Cc1ccc(OCc2ccccc2)cc1)C(=O)C1=C(O)C(CC2CCCCC2)OC1=O (stereo not drawn) [Example C9, 3-[3-(4-Benzyloxy-phenyl)-2-methyl-propionyl]-5-cyclohexylmethyl-4-hydroxy-5H-furan-2-one] | 13 µM |
| O=C(CC(c1ccccc1)c1ccccc1)C1=C(O)C(CCc2ccccc2)(c2ccccc2)OC1=O (stereo not drawn) [Example J4, 3-(3,3-Diphenyl-propionyl)-4-hydroxy-5-phenethyl-5-phenyl-5H-furan-2-one] | 41 µM |
| O=C(CCCC1CCCCC1)C1=C(O)C(CCc2ccccc2)OC1=O (racemic) [Example E7, Rac-3-(4-cyclohexyl-butyryl)-4-hydroxy-5-phenethyl-5H-furan-2-one] | 57 µM |
| O=C(Cc1cn(Cc2ccc(F)cc2)c2ccccc12)C1=C(O)C(CC2CCCCC2)OC1=O (stereo not drawn) [Example C19, 5-Cyclohexylmethyl-3-{[1-(4-fluoro-benzyl)-1H-indol-3-yl]-acetyl}-4-hydroxy-5H-furan-2-one] | 15 µM |
| O=C(CC(c1ccccc1)c1ccccc1)C1=C(O)C(CCCN2CCOCC2)OC1=O (stereo not drawn) [Example G29, 3-(3,3-Diphenyl-propionyl)-4-hydroxy-5-(3-morpholin-4-yl-propyl)-5H-furan-2-one] | 85 µM |
| CC(Cc1ccc(C(C)(C)C)cc1)C(=O)C1=C(O)C(Cc2ccccc2)OC1=O (stereo not drawn) [Example D2, 5-Benzyl-3-[3-(4-tert-butyl-phenyl)-2-methyl-propionyl]-4-hydroxy-5H-furan-2-one] | 33 µM |
